According to publication PMC6887663 (Pharmacology Research & Perspectives, 2019):

Legend:
CYP3A4/5 = CYP3A4/5 inhibition in human liver microsomes; assay type: biochemical; details: for IC50 at 10 min / inhibition at 10 min, 666 μmol/L: human, human liver microsomes; for inhibition at 10 min, 666 μmol/L: probe testosterone, Inhibition of formation of 6β‐hydroxytestosterone, Mean, testosterone
CYP1A2 = molecular target: T1, CYP1A2 (Homo sapiens, UniProt P05177); test: CYP1A2 inhibition in human liver microsomes; assay type: biochemical
T1 sequence (P05177 1-516): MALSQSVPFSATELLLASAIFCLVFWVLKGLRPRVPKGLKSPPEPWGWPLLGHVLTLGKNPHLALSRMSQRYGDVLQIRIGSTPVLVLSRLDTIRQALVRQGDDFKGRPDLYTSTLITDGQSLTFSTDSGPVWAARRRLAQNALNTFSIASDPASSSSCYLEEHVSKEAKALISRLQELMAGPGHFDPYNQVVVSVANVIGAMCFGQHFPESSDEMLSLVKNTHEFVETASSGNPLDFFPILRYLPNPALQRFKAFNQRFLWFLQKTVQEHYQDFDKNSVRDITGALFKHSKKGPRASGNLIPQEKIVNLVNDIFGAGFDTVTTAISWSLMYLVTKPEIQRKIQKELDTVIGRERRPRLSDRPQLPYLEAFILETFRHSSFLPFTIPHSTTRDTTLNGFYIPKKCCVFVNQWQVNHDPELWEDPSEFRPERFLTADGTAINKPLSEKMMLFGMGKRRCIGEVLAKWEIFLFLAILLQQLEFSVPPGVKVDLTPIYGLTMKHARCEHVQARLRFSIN

CYP2B6 = molecular target: T2, CYP2B6 (Homo sapiens, UniProt P20813); test: CYP2B6 inhibition in human liver microsomes; assay type: biochemical
T2 sequence (P20813 1-491): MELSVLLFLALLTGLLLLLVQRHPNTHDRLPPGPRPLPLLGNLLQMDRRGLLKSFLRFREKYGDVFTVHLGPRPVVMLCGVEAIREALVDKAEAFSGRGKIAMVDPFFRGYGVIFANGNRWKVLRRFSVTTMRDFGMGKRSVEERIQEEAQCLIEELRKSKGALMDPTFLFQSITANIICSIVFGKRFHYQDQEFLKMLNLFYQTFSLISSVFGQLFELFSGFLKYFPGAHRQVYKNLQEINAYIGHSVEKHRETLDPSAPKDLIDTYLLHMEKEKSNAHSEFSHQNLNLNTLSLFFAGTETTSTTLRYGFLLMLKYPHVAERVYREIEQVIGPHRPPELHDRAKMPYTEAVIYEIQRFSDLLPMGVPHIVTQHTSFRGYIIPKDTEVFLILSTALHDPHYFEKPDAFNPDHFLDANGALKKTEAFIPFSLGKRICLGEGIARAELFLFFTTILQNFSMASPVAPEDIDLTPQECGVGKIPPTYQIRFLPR

CYP2C8 = molecular target: T3, CYP2C8 (Homo sapiens, UniProt P10632); test: CYP2C8 inhibition in human liver microsomes; assay type: biochemical
T3 sequence (P10632 1-490): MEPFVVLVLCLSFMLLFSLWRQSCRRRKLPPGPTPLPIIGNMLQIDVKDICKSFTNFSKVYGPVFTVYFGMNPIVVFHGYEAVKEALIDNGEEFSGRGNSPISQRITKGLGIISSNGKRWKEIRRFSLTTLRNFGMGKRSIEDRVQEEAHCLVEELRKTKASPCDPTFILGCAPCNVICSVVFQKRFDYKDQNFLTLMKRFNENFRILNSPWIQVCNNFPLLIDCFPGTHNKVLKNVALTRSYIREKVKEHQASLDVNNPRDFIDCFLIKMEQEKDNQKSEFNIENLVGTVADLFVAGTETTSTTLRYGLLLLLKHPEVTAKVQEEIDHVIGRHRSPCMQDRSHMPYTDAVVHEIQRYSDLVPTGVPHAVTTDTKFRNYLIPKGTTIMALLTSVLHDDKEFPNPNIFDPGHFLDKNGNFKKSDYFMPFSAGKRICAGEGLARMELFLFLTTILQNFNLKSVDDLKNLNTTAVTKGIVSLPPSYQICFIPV

CYP2C9 = CYP2C9 (Homo sapiens, UniProt P11712); test: CYP2C9 inhibition in human liver microsomes; assay type: biochemical
CYP2C19 = CYP2C19 (Homo sapiens, UniProt P33261); test: CYP2C19 inhibition in human liver microsomes; assay type: biochemical
CYP2D6 = CYP2D6 (Homo sapiens, UniProt P10635); test: CYP2D6 inhibition in human liver microsomes; assay type: biochemical
[1] = Preliminary solubility in potassium phosphate buffer with HLM; assay type: physicochemical; details: MMF in solutions of HLM at 0.025 and 0.3 mg/mL
[2] = Preliminary metabolic stability in HLM; assay type: in vitro ADME, human; details: with and without cofactor, 37°C, 0-40 minutes, MMF at 750 μmol/L
[3] = MMF solubility in supplemented Williams' Medium E; assay type: physicochemical; details: MMF up to 750 μmol/L
[4] = Cytotoxicity in cultured human hepatocytes; assay type: cell-based; details: human, cryopreserved plated human hepatocytes
human hepatocytes = test: Cytotoxicity in cultured human hepatocytes; assay type: cell-based; details: MMF ≤250 μmol/L; 72‐hour incubation
CYP1A2 mRNA = CYP1A2 mRNA induction in cultured human hepatocytes; assay type: cell-based
CYP2B6 mRNA = CYP2B6 mRNA induction in cultured human hepatocytes; assay type: cell-based
CYP3A4 mRNA = CYP3A4 mRNA induction in cultured human hepatocytes; assay type: cell-based
[5] = MMF concentration in incubation medium; assay type: in vitro ADME; details: no‐cell control plate; after 24 hours’ incubation
[6] = Permeability across Caco-2 cell monolayers; assay type: in vitro ADME; details: human, Caco-2, pH 7.4
P‐gp [7] = molecular target: T4, P‐gp (Homo sapiens, UniProt P08183); test: P-gp substrate assessment in MDCKII-MDR1 and WT MDCKII cells; assay type: in vitro ADME; details: MMF; at 120 minutes; all concentrations investigated
[8] = read-out: maximum plasma concentration (Cmax) of MMF; for a 240 mg dose; clinically relevant; cited from earlier work
P‐gp [9] = molecular target: T4, P‐gp; test: P-gp inhibition, [3H]digoxin efflux in Caco-2 cells; details: for % Control relative to 0 mmol/L MMF: Caco‐2 cells, [^3H]digoxin efflux ratio
P‐gp [10] = molecular target: T4, P‐gp; test: P-gp inhibition, [3H]digoxin efflux in MDCKII-MDR1 and MDCKII-WT cells; details: for % Control relative to 0 mmol/L MMF: MDCKII cells, [^3H]digoxin net efflux ratio
[11] = pH conditions and gut esterases; cited from earlier work
[12] = system: moderate‐to‐severe psoriasis; details: phase III trial (BRIDGE); both P < .001; cited from earlier work

T4 sequence (P08183 whole entry): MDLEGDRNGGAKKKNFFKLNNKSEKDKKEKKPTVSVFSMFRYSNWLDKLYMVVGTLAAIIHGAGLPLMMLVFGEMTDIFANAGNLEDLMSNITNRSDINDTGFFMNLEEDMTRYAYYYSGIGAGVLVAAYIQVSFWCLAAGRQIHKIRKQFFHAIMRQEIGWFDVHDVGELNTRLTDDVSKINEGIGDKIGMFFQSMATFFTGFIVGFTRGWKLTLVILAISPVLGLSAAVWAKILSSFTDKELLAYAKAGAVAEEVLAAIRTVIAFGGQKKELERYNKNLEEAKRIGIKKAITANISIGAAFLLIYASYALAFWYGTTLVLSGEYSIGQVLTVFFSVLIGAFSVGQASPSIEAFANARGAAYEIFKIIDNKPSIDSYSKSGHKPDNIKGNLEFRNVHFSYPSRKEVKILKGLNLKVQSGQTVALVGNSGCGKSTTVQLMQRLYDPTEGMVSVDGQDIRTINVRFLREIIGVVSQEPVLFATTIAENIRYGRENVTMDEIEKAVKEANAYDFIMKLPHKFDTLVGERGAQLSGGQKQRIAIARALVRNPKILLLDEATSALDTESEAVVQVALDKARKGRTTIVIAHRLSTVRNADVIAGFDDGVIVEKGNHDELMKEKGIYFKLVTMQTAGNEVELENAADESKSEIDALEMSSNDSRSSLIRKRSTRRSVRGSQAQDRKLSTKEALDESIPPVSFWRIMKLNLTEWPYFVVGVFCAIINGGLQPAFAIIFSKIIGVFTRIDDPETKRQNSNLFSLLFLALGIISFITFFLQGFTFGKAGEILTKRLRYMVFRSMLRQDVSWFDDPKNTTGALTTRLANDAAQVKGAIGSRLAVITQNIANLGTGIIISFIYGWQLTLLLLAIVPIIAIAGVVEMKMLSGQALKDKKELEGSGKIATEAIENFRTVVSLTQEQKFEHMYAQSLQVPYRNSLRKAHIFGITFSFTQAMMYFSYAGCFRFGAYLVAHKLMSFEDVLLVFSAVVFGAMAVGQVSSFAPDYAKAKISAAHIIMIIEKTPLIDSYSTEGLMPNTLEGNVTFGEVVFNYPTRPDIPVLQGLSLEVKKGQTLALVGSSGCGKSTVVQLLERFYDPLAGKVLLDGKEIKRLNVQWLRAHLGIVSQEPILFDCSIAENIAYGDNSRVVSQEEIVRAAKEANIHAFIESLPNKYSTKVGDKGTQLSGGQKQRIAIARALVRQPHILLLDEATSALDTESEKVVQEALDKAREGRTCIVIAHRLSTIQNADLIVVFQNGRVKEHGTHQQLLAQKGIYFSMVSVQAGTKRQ
Sequence of CYP2D6 (P10635 whole entry): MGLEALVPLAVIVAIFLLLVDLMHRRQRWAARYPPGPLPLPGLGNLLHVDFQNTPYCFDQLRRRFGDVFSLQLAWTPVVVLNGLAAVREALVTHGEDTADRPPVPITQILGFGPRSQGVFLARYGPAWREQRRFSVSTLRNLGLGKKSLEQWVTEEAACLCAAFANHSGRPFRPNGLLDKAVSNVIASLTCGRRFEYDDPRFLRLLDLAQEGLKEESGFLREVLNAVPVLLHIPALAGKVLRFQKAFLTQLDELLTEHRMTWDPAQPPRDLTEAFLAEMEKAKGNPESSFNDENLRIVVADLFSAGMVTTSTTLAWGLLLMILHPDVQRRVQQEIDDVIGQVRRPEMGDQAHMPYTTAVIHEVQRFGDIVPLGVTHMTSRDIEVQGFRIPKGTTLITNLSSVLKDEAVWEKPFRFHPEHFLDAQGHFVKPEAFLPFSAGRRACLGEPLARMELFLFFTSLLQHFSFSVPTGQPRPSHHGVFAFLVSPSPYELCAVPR
Sequence of CYP2C9 (P11712 whole entry): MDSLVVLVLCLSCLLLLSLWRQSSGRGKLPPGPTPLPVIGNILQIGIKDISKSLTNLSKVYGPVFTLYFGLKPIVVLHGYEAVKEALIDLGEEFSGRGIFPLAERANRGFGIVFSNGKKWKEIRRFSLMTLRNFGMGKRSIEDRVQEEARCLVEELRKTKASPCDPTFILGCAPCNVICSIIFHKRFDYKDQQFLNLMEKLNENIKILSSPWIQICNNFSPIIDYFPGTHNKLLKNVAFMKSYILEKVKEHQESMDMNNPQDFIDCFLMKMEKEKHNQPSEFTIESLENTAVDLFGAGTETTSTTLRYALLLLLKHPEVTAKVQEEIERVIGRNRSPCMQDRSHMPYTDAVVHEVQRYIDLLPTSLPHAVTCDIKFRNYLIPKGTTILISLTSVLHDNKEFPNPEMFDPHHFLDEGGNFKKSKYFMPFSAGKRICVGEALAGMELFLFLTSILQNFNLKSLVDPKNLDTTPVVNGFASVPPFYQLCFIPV
Sequence of CYP2C19 (P33261 whole entry): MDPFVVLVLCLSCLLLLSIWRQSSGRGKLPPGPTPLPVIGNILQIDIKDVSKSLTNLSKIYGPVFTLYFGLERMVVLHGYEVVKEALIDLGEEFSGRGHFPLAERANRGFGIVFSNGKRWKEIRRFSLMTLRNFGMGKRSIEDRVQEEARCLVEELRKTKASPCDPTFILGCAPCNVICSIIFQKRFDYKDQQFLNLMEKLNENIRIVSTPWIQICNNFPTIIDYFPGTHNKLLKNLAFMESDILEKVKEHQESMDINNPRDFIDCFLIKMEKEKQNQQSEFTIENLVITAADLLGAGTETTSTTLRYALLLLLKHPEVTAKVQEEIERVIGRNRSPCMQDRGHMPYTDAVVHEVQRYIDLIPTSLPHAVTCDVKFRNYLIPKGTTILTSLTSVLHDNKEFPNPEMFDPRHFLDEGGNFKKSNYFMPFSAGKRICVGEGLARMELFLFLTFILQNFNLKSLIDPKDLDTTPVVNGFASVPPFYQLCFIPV

SMILES: COC(=O)/C=C/C(=O)O [MMF, monomethylfumarate]
- IC50 at 10 min (CYP3A4/5): > 750 µM
- IC50 (CYP1A2): > 750 µM
- IC50 (CYP2B6): > 750 µM
- IC50 (CYP2C8): > 750 µM
- IC50 (CYP2C9): > 750 µM
- IC50 (CYP2C19): > 750 µM
- IC50 (CYP2D6): > 750 µM
- mean recovery upon centrifugation [1]: > 92.2%
- metabolic stability under the incubation conditions [2]: stable
- Post‐centrifugation recoveries [3]: ≥ 86.5%
- viability at 72 h, 750 μmol/L [4]: 71.6%
- cytotoxic effects on human hepatocytes (human hepatocytes): No significant cytotoxic effects
- fold increase in CYP1A2 mRNA (CYP1A2 mRNA; 250 μmol/L MMF, donor 4): 4.78 fold
- CYP1A2 mRNA induction, overall (CYP1A2 mRNA; MMF 1‐250 µmol/L, three donors): No concentration‐dependent induction effects
- fold increase in CYP2B6 mRNA (CYP2B6 mRNA; 250 μmol/L MMF, donor 4): 17.6 fold
- CYP2B6 mRNA induction, overall (CYP2B6 mRNA; MMF 1‐250 µmol/L, three donors): No concentration‐dependent induction effects
- fold increase in CYP3A4 mRNA (CYP3A4 mRNA; 1 µmol/L MMF, donor 2 (XKU), not concentration dependent): > 2 fold
- CYP3A4 mRNA induction, overall (CYP3A4 mRNA; MMF at concentrations up to 250 μmol/L): no concentration‐dependent increases above 2‐fold
- MMF still present in medium [5]: over 65%
- Papp A→B at 120 min [6]: < 2 ×10⁻⁶ cm/s
- net efflux ratio (P‐gp [7]): < 2
- Cmax [8]: 11.2 µM
- decrease of [^3H]digoxin efflux ratio (P‐gp [9]; 7.38 mmol/L MMF, Caco‐2): approximately 85%
- fold increase of Papp for [^3H]digoxin in the A–B direction (P‐gp [9]; 7.38 mmol/L MMF, Caco‐2, possibly cytotoxicity): approximately 9 fold
- % Control relative to 0 mmol/L MMF (P‐gp [9]; MMF 0.0738 mmol/L): 76.9%
- % Control relative to 0 mmol/L MMF (P‐gp [9]; MMF 0.246 mmol/L): 76.7%
- % Control relative to 0 mmol/L MMF (P‐gp [9]; MMF 0.738 mmol/L): 99.8%
- % Control relative to 0 mmol/L MMF (P‐gp [9]; MMF 7.38 mmol/L): 14.5%
- % Control relative to 0 mmol/L MMF (P‐gp [10]; MMF 0.246 mmol/L): >69.4%
- % Control relative to 0 mmol/L MMF (P‐gp [10]; MMF 0.738 mmol/L): >88.2%
- % Control relative to 0 mmol/L MMF (P‐gp [10]; MMF 7.38 mmol/L): >138%

SMILES: COC(=O)/C=C/C(=O)OC [DMF, dimethylfumarate]
- Inhibition of formation of 1′‐hydroxymidazolam, Mean (CYP3A4/5; DMF 666 μmol/L, 30 min PI + cofactor, midazolam, HLM): 8.93%
- IC50 at 10 min (CYP3A4/5): > 666 µM
- inhibition at 10 min, 666 μmol/L (CYP3A4/5; DMF 666 μmol/L, 0 min PI, HLM): 0%
- inhibition at 10 min, 666 μmol/L (CYP3A4/5; DMF 666 μmol/L, 30 min PI + cofactor, HLM): 35.5%
- inhibition at 10 min, 666 μmol/L (CYP3A4/5; DMF 666 μmol/L, 30 min PI – cofactor, HLM): 0%
- metabolic stability under the incubation conditions [2]: unlikely to be stable
- hydrolysis half‐life of DMF in the intestine [11]: less than 2 minutes
- number of patients with PASI 75 at Week 16 [12]: superiority over placebo and noninferiority versus the FAE combination
- IC50 (P‐gp [9]): 1500 µM
- IC50 (P‐gp [10]): 900 µM
